Among the test systems are HOP-92; SR; HCT-15; HL-60; U-251; SN12C; UACC-62; PC-3; NCI/ADR-RES; KM12; SW-620; SF-295; ACHN; UO-31; RXF 393; OVCAR-3; A498; Malme-3M; DU-145; SK-MEL-5.
Assay in all cases: inhibition of tumour cell growth, NCI panel, 48 h

Several values for one entry are separate records, joined by “and”; a condition that tells them apart may be missing. Equal values may be shown once.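 Dose response: 5 concentrations. Exposure: 48 h. Format: 96-well plates. Endpoint: linear interpolation; highest concentration if not reached. Here, GI50 denotes the concentration required for 50% inhibition of growth.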 Activity calls are given as the source filed them. Cut-off read from the data, not from the text of the source: active = GI50 up to about 1.1 µM and inactive = higher. Some results are limits rather than exact numbers.

For the compound `O=C1C(c2c(O)[nH]c3ccc(I)cc23)=Nc2ccccc21`, the GI50 is 3.24 µM (inactive) in the experiment on HOP-92; 10.8 µM (inactive) in the experiment with SR; 7.21 µM in the experiment on HCT-15; > 100 µM (inactive) with HL-60; 2.87 µM (inactive) in the experiment with U-251; 9.25 µM (inactive) in the experiment on SN12C. Moreover, the GI50 is 4.66 µM (inactive) with UACC-62; 2.94 µM (inactive) with PC-3; 6 µM (inactive) in the experiment on NCI/ADR-RES; 5.24 µM (inactive) with KM12; 13.2 µM (inactive) with SW-620; 4.88 µM (inactive) in the experiment on SF-295. For the same compound, the GI50 with ACHN was 3.23 µM (inactive); with UO-31, 4.02 µM (inactive); in the experiment with RXF 393 it was 3.24 µM (inactive); with OVCAR-3 it was 5.71 µM (inactive); with A498, 1.9 µM (inactive); with Malme-3M, 8.17 µM (inactive). The GI50 in the experiment on DU-145 was 4.74 µM (inactive); in the experiment on SK-MEL-5 it was 2.57 µM (inactive).

In the case of `Clc1ccccc1NN(Cc1ccccn1)c1ccccc1Cl`, the GI50 in the experiment on HOP-92 is 16.1 µM (inactive); with SR, 13.4 µM (inactive); in the experiment on HCT-15, 24.9 µM; in the experiment with HL-60, 18.5 µM (inactive); in the experiment on U-251, 15.8 µM (inactive); with SN12C, 18.8 µM (inactive). For the same compound, the GI50 was 16.7 µM (inactive) in the experiment with UACC-62; 29.2 µM (inactive) in the experiment on PC-3; 16.7 µM (inactive) in the experiment with NCI/ADR-RES; 16.9 µM (inactive) with KM12; 17.7 µM (inactive) with SW-620; 30.1 µM (inactive) in the experiment with SF-295. For the same compound, the GI50 with ACHN was 33.9 µM (inactive); with UO-31, 20.4 µM (inactive); in the experiment on RXF 393, 14.9 µM (inactive); in the experiment on OVCAR-3 it was 18.1 µM (inactive); with A498, 20.5 µM (inactive); with Malme-3M, 19 µM (inactive). In addition, the GI50 was 35.5 µM (inactive) in the experiment on DU-145 and 14.5 µM (inactive) in the experiment with SK-MEL-5.

In the case of `COc1cc2[nH]c(=O)c3cc(-c4ccccc4)cc4c(Cl)nc(c1OC)c2c43`, the GI50 in the experiment on HOP-92 is 41.8 µM (inactive); in the experiment with SR, 9.89 µM (inactive); with HCT-15 it was 9.55 µM; in the experiment on HL-60, 2.17 µM (inactive); in the experiment on U-251 it was 16.4 µM (inactive); in the experiment on SN12C, 11.7 µM (inactive). Further, the GI50 was 14.1 µM (inactive) with UACC-62; 4.86 µM (inactive) in the experiment on PC-3; 7.35 µM (inactive) in the experiment on NCI/ADR-RES; 20 µM (inactive) in the experiment on KM12; 3.37 µM (inactive) with SW-620; > 49.4 µM (inactive) with SF-295. Moreover, the GI50 was 15.6 µM (inactive) in the experiment on ACHN; 19.2 µM (inactive) in the experiment with UO-31; 23.3 µM (inactive) in the experiment on RXF 393; 3.79 µM (inactive) in the experiment on OVCAR-3; > 100 µM (inactive) in the experiment on A498; 6.32 µM (inactive) in the experiment with Malme-3M. The figures for the GI50 with DU-145 and in the experiment with SK-MEL-5 were 23.6 µM (inactive) and 12.5 µM (inactive), respectively.

Regarding `NC(Cc1ccc(N(CCCl)CCCl)cc1)C(=O)NC(CCC(=O)O)C(=O)O` (stereo not given), the GI50 in the experiment with HOP-92 is > 100 µM (inactive); with SR, 38 µM (inactive) and 60.4 µM (inactive); in the experiment on HCT-15 it was above 100 µM; in the experiment on HL-60 it was > 100 µM (inactive); with U-251, > 100 µM (inactive); in the experiment with SN12C, > 100 µM (inactive). The GI50 in the experiment with UACC-62, in the experiment on PC-3, in the experiment with NCI/ADR-RES, with KM12, with SW-620 and in the experiment on SF-295 was > 100 µM (inactive) throughout. For the same compound, the GI50 in the experiment with ACHN, in the experiment on UO-31, in the experiment on RXF 393, in the experiment with OVCAR-3, with A498 and with Malme-3M was > 100 µM (inactive) throughout. The GI50 in the experiment on DU-145 and in the experiment with SK-MEL-5 was > 100 µM (inactive) throughout.

Take `Cc1ccc2c(c1)CC1(Cc3ccccc3C1=O)C2=O` (stereo not given): the GI50 is 64.3 µM (inactive) in the experiment on HOP-92; > 100 µM (inactive) in the experiment on SR; above 100 µM in the experiment with HCT-15; > 100 µM (inactive) in the experiment with HL-60; > 100 µM (inactive) in the experiment with U-251; > 100 µM (inactive) in the experiment with SN12C. For the same compound, the GI50 in the experiment with UACC-62, with PC-3, with NCI/ADR-RES, with KM12, in the experiment on SW-620 and in the experiment with SF-295 was > 100 µM (inactive) each time. Besides, the GI50 in the experiment on ACHN, with UO-31, in the experiment with RXF 393, with OVCAR-3, with A498 and in the experiment on Malme-3M was > 100 µM (inactive) in each case. Besides, the GI50 in the experiment with DU-145 and in the experiment on SK-MEL-5 was > 100 µM (inactive) in each case.

`CC(C)NC(=O)OCc1c(COC(=O)NC(C)C)n(C)c2c1ccc1ccsc12`: the GI50 with HOP-92 is 10.1 µM (inactive); in the experiment with SR, 2.37 µM (inactive); in the experiment with HCT-15, 9.25 µM; in the experiment with HL-60 it was 2.69 µM (inactive); in the experiment with U-251, 8.45 µM (inactive); with SN12C, 5.66 µM (inactive). Further, the GI50 is 6.9 µM (inactive) in the experiment on UACC-62; 15.3 µM (inactive) in the experiment on PC-3; 6.75 µM (inactive) with NCI/ADR-RES; 15.3 µM (inactive) in the experiment on KM12; 5.19 µM (inactive) in the experiment on SW-620; 7.62 µM (inactive) in the experiment with SF-295. Moreover, the GI50 was 3.05 µM (inactive) with ACHN; 7.1 µM (inactive) in the experiment with UO-31; 6.98 µM (inactive) in the experiment with RXF 393; 13.9 µM (inactive) in the experiment on OVCAR-3; 9.73 µM (inactive) in the experiment with A498; 4.36 µM (inactive) with Malme-3M. Further, the GI50 is 4.76 µM (inactive) with DU-145 and 10.7 µM (inactive) with SK-MEL-5.

For the compound `COC(=O)[C@]12CCC(C)(C)C[C@H]1C1=CC[C@@H]3[C@@]4(C)CC[C@H](OC5OC(CO)C(O)C(O)C5OC5OC(CO)C(O)C(O)C5O)C(C)(C)[C@@H]4CC[C@@]3(C)[C@]1(C)CC2` (stereo not given in full), the GI50 in the experiment with HOP-92 was 3.91 µM (inactive); in the experiment on SR it was 7.85 µM (inactive); in the experiment with HCT-15 it was 12.5 µM; in the experiment on HL-60, 4.93 µM (inactive); with U-251, 13.2 µM (inactive); in the experiment on SN12C it was 4.62 µM (inactive). Moreover, the GI50 is 10.5 µM (inactive) in the experiment with UACC-62; 3.89 µM (inactive) in the experiment on PC-3; 14.5 µM (inactive) in the experiment with NCI/ADR-RES; 12.6 µM (inactive) with KM12; 14.2 µM (inactive) in the experiment with SW-620; 14.2 µM (inactive) in the experiment on SF-295. In addition, the GI50 with ACHN is 7.55 µM (inactive); in the experiment with UO-31, 3.4 µM (inactive); with RXF 393 it was 5.75 µM (inactive); in the experiment with OVCAR-3, 10.6 µM (inactive); in the experiment on A498, 11.3 µM (inactive); with Malme-3M, 11.9 µM (inactive). Besides, the GI50 was 12 µM (inactive) in the experiment on DU-145 and 15.8 µM (inactive) with SK-MEL-5.

The values above are taken from ChEMBL document CHEMBL1201862, “PubChem BioAssay data set” (2004).
